Laboratory results: patent US20250059231A1, “Protease inhibitors” (priority 2021, published 2025)
pIC50: −log10 of the molar value. Where a SMILES comes first, the peptide text is derived from it. [ ]: non-standard residue; d: D form. The star is where a group is joined. Palmitoyl = CCCCCCCCCCCCCCCC(=O)*; hPhe = N[C@@H](CCc1ccccc1)C(=O)O

Biological target: T1, DENV protease (Dengue virus type 2, UniProt P29990)
T1 construct: The virus-encoded dengue protease comprises the amino-terminal 180 amino acids of NS3 (NS3pro) of the polyprotein
Test: biochemical
Settings: at 50 μM; read-out: inhibition of DENV
How it was run: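 DENV protease (100 nM) was pre-incubated 15 min with inhibitors in 50 mM Tris-HCl pH 9.0, 10% ethylene glycol, 0.0016% Brij 58. FRET substrate (50 μM final) started the reaction, monitored 15 min as RFU/s slope. IC50 came from triplicate means versus concentration.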

T1 sequence (P29990 1398-1437): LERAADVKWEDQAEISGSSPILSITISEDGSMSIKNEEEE
T1 sequence (P29990 1476-1653): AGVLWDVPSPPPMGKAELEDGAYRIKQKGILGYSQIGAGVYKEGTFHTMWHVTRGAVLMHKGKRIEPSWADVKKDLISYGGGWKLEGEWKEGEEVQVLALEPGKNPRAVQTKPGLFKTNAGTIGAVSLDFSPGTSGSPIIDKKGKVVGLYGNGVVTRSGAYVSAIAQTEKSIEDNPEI

Row | SMILES | inhibition at 50 µM
1 | CCCCCCCCCCCCCCCC(=O)N[C@@H](CCCCN)C(=O)N1CCC[C@H]1C(=O)N[C@@H](Cc1cnc[nH]1)C(=O)N[C@@H](CCc1ccccc1)C(N)=O [compound 11] (Palmitoyl-KPH[hPhe]-NH2) | ≥ 25%
2 | CCCCCCCCCCCCCCCC(=O)N[C@@H](CCCCN)C(=O)N[C@@H](C)C(=O)N[C@@H](C)C(=O)N[C@@H](Cc1c[nH]c2ccccc12)C(N)=O [compound 92] (Palmitoyl-KAAW-NH2) | ≥ 25%

Biological target: T2, WNV protease (West Nile virus, UniProt P06935)
T2 construct: a trypsin-like serine protease domain in the N-terminal region of the flaviviral NS3 proteins
Test: WNV protease assay (analogous procedure)
Format: biochemical
Settings: at 50 μM
Experimental: (§1) By catalytic activity of the protease, the cleaved substrate results in increased fluorescence that can be monitored using a BMG Labtech Fluostar OPTIMA Microtiter fluorescence plate reader (excitation wavelength of 320 nm and a monitored emission wavelength of 405 nm). Dilutions were made starting from 10 mM stock solutions in DMSO and final concentrations were measured in triplicates. The inhibitors were preincubated for 15 min with DENV protease (100 nM) in the assay buffer (50 mM Tris-HCl pH 9.0, ethylene glycol (10% v/v), and 0.0016% Brij 58). The enzymatic reaction was initiated by the addition of the FRET substrate (final concentration 50 μM) to obtain a final assay volume of 100 μL per well. The enzymatic activity was monitored for 15 min and determined as a slope of relative fluorescence units per second (RFU/s) for each concentration. The mean of the triplicates were plotted against the corresponding concentration in CDDVault to determine the IC50-values. Analogous procedures were used to determine the inhibitory potency on WNV (Kühl et al., J. Med. Chem. 2020, 63 (15): 8179-8197) and ZIKA protease (Nitsche et al., ACS Med. Chem. Lett. 2019 Feb. 14; 10 (2): 168-174). For selectivity screening of active candidates, similar biochemical assays with human serine proteases trypsin (Weigel et al., J. Med. Chem. 2015, 58 (19), 7719-7733.) and/or thrombin (Nitsche et al., J. Med. Chem. 2013, 56 (21), 8389-8403) were used.

T2 sequence (P06935 1424-1463): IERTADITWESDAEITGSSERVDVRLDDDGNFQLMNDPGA
T2 sequence (P06935 1502-1679): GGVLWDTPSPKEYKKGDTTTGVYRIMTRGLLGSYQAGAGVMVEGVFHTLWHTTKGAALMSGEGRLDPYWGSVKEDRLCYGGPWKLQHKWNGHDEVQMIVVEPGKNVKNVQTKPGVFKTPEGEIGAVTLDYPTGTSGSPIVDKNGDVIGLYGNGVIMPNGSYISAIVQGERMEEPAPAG

Row | SMILES | inhibition at 50 µM
3 | CCCCCCCCCCCCCCCC(=O)N[C@@H](CCCCN)C(=O)N1CCC[C@H]1C(=O)N[C@@H](Cc1cnc[nH]1)C(=O)N[C@@H](CCc1ccccc1)C(N)=O [compound 11] (Palmitoyl-KPH[hPhe]-NH2) | ≥ 25%
4 | CCCCCCCCCCCCCCCC(=O)N[C@@H](CCCCN)C(=O)N[C@@H](C)C(=O)N[C@@H](C)C(=O)N[C@@H](Cc1c[nH]c2ccccc12)C(N)=O [compound 92] (Palmitoyl-KAAW-NH2) | ≥ 25%

Biological target: T3, ZIKA protease (Zika virus, UniProt Q32ZE1)
T3 construct: a trypsin-like serine protease domain in the N-terminal region of the flaviviral NS3 proteins
Test: biochemical
Settings: not given
Experimental: as §1

T3 sequence (Q32ZE1 1499-1676): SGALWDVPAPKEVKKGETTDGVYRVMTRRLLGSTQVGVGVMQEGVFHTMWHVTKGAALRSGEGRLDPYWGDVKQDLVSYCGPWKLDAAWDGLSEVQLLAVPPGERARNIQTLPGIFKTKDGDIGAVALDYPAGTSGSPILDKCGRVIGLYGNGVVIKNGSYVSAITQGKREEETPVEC
T3 sequence (Q32ZE1 1421-1460): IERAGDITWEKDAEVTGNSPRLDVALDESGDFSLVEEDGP

Row | SMILES | pIC50
5 | CCCCCCCCCCCCCCCC(=O)N[C@@H](CCCCN)C(=O)N1CCC[C@H]1C(=O)N[C@@H](Cc1cnc[nH]1)C(=O)N[C@@H](CCc1ccccc1)C(N)=O [compound 11] (Palmitoyl-KPH[hPhe]-NH2) | ≥ 4.60
6 | CCCCCCCCCCCCCCCC(=O)N[C@@H](CCCCN)C(=O)N[C@@H](C)C(=O)N[C@@H](C)C(=O)N[C@@H](Cc1c[nH]c2ccccc12)C(N)=O [compound 92] (Palmitoyl-KAAW-NH2) | ≥ 4.60

Same assay, conditions: at 1 μM; read-out: inhibition of ZIKV

Row | SMILES | inhibition at 1 µM
7 | CCCCCCCCCCCCCCCC(=O)N[C@@H](CCCCN)C(=O)N1CCC[C@H]1C(=O)N[C@@H](Cc1cnc[nH]1)C(=O)N[C@@H](CCc1ccccc1)C(N)=O [compound 11] (Palmitoyl-KPH[hPhe]-NH2) | ≥ 10%
8 | CCCCCCCCCCCCCCCC(=O)N[C@@H](CCCCN)C(=O)N[C@@H](C)C(=O)N[C@@H](C)C(=O)N[C@@H](Cc1c[nH]c2ccccc12)C(N)=O [compound 92] (Palmitoyl-KAAW-NH2) | ≥ 10%

Same assay, conditions: at 50 μM; read-out: inhibition of ZIKV

Row | SMILES | inhibition at 50 µM
9 | CCCCCCCCCCCCCCCC(=O)N[C@@H](CCCCN)C(=O)N1CCC[C@H]1C(=O)N[C@@H](Cc1cnc[nH]1)C(=O)N[C@@H](CCc1ccccc1)C(N)=O [compound 11] (Palmitoyl-KPH[hPhe]-NH2) | ≥ 65%
10 | CCCCCCCCCCCCCCCC(=O)N[C@@H](CCCCN)C(=O)N[C@@H](C)C(=O)N[C@@H](C)C(=O)N[C@@H](Cc1c[nH]c2ccccc12)C(N)=O [compound 92] (Palmitoyl-KAAW-NH2) | ≥ 65%

Biological target: human Thrombin (Homo sapiens, UniProt P00734)
Test: Selectivity screening, human serine protease thrombin
Format: biochemical
Settings: at 5 μM; read-out: inhibition of human Thrombin
Experimental: as §1

Row | SMILES | inhibition at 5 µM
11 | CCCCCCCCCCCCCCCC(=O)N[C@@H](CCCCN)C(=O)N1CCC[C@H]1C(=O)N[C@@H](Cc1cnc[nH]1)C(=O)N[C@@H](CCc1ccccc1)C(N)=O [compound 11] (Palmitoyl-KPH[hPhe]-NH2) | < 5%
12 | CCCCCCCCCCCCCCCC(=O)N[C@@H](CCCCN)C(=O)N[C@@H](C)C(=O)N[C@@H](C)C(=O)N[C@@H](Cc1c[nH]c2ccccc12)C(N)=O [compound 92] (Palmitoyl-KAAW-NH2) | < 5%

Biological target: human Trypsin (Homo sapiens, UniProt P07477)
Test: Selectivity screening, human serine protease trypsin
Format: biochemical
Settings: at 5 μM; read-out: inhibition of human Trypsin
Experimental: as §1

Row | SMILES | inhibition at 5 µM
13 | CCCCCCCCCCCCCCCC(=O)N[C@@H](CCCCN)C(=O)N1CCC[C@H]1C(=O)N[C@@H](Cc1cnc[nH]1)C(=O)N[C@@H](CCc1ccccc1)C(N)=O [compound 11] (Palmitoyl-KPH[hPhe]-NH2) | < 10%
14 | CCCCCCCCCCCCCCCC(=O)N[C@@H](CCCCN)C(=O)N[C@@H](C)C(=O)N[C@@H](C)C(=O)N[C@@H](Cc1c[nH]c2ccccc12)C(N)=O [compound 92] (Palmitoyl-KAAW-NH2) | < 10%

Same assay, conditions: at 25 μM; read-out: inhibition of human Trypsin

Row | SMILES | inhibition at 25 µM
15 | CCCCCCCCCCCCCCCC(=O)N[C@@H](CCCCN)C(=O)N1CCC[C@H]1C(=O)N[C@@H](Cc1cnc[nH]1)C(=O)N[C@@H](CCc1ccccc1)C(N)=O [compound 11] (Palmitoyl-KPH[hPhe]-NH2) | < 20%
16 | CCCCCCCCCCCCCCCC(=O)N[C@@H](CCCCN)C(=O)N[C@@H](C)C(=O)N[C@@H](C)C(=O)N[C@@H](Cc1c[nH]c2ccccc12)C(N)=O [compound 92] (Palmitoyl-KAAW-NH2) | < 20%

Biological target: T2, WNV protease
Test: WNV protease assay (analogous procedure)
Format: biochemical
Settings: read-out: IC50 for WNNV

Row | SMILES | pIC50
17 | CCCCCCCCCCCCCCCC(=O)N[C@@H](CCCCN)C(=O)N1CCC[C@H]1C(=O)N[C@@H](Cc1cnc[nH]1)C(=O)N[C@@H](CCc1ccccc1)C(N)=O [compound 11] (Palmitoyl-KPH[hPhe]-NH2) | ≥ 4.40
18 | CCCCCCCCCCCCCCCC(=O)N[C@@H](CCCCN)C(=O)N[C@@H](C)C(=O)N[C@@H](C)C(=O)N[C@@H](Cc1c[nH]c2ccccc12)C(N)=O [compound 92] (Palmitoyl-KAAW-NH2) | ≥ 4.40
